Laboratory results as given in patent US20230312550A1, “N-(2-(4-CYANOTHIAZOLIDIN-3-YL)-2-OXOETHYL)-QUINOLINE-4-CARBOXAMIDES” (AstraZeneca AB, priority 2020, published 2023).
Converted amounts (≈) assume the structure as drawn.

What was measured:
[1] = biological target: Prolyl endopeptidase, Prolyl Oligopeptidase (hPREP) (Homo sapiens (Human), UniProt P48147); assay: hPrep inhibition assay; type: biochemical; settings: hPREP 0.6 nM, Z-Gly-Pro-amino-methylcoumarin 50 μM; read-out: PREP IC50
Procedure, shortened: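 Recombinant human PREP at 0.6 nM final with Z-Gly-Pro-AMC substrate at 50 μM final in Tris-HCl pH 7.5, NaCl, Triton X-100, glutathione; 15 min rt preincubation then 20 min rt reaction in dark. AMC fluorescence (ex 340/em 460 nm); IC50 from one-site dose-response fit of % inhibition.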

[2] = Metabolic stability in rat hepatocytes (rHep); settings: n = 1 or geometric mean of n = 2-3
Kinetic solubility = settings: kinetic from dmso stock
Procedure: Kinetic solubility was measured as described in Comput Aided Mol Des 2015, 29, 795.

[3] = Metabolic stability in human liver microsomes (HLM); settings: human
Procedure: Metabolic stability in HLM was measured as described in J Comput Aided Mol Des 2015, 29, 795.

[4] = biological target: human Fibroblast activation protein alpha (hFAP) (Homo sapiens (Human), UniProt Q12884); assay: hFAP inhibition assay (tight binders); type: biochemical; settings: Ala-Pro-AMC 20 μM, n = 1 or geometric mean n = 2-6; also: hFAP 2.4 pM
Sequence of human Fibroblast activation protein alpha (hFAP) (Q12884 38-760): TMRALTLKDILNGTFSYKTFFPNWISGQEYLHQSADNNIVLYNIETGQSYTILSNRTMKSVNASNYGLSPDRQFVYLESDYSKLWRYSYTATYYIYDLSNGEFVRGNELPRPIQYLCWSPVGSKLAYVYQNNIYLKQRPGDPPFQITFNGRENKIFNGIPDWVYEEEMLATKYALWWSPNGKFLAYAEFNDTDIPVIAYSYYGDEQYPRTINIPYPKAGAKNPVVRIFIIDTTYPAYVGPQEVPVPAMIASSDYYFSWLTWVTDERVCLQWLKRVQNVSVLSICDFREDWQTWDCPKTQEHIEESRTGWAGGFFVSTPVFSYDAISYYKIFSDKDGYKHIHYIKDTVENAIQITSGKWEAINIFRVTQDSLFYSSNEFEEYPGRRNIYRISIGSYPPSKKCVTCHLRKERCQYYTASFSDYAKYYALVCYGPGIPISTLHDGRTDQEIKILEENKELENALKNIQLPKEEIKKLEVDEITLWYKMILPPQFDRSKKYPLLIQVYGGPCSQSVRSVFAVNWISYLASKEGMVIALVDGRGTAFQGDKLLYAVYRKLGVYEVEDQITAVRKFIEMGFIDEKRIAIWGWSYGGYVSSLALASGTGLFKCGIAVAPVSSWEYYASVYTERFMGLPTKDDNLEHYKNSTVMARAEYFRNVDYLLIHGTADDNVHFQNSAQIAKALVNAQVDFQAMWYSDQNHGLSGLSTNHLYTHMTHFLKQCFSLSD
Procedure: The plates were read on a PHERAstar® reader with excitation 340 nm and emission 460 nm. Data were analyzed in Genedata Screener®. IC50 values were determined by plotting % inhibition versus log compound concentration and using a one site dose response model.

hFAP (M39-A757) = hFAP (M39-A757) (Homo sapiens (Human), UniProt Q12884); assay: hFAP binding assay (surface plasmon resonance); settings: SPR, 20° C.; for hFAP Binding assay k(off) / hFAP Binding assay k(on): single cycle kinetics; for Kd: n = 1 or geometric mean n = 2-4
Sequence of hFAP (M39-A757) (Q12884 39-757): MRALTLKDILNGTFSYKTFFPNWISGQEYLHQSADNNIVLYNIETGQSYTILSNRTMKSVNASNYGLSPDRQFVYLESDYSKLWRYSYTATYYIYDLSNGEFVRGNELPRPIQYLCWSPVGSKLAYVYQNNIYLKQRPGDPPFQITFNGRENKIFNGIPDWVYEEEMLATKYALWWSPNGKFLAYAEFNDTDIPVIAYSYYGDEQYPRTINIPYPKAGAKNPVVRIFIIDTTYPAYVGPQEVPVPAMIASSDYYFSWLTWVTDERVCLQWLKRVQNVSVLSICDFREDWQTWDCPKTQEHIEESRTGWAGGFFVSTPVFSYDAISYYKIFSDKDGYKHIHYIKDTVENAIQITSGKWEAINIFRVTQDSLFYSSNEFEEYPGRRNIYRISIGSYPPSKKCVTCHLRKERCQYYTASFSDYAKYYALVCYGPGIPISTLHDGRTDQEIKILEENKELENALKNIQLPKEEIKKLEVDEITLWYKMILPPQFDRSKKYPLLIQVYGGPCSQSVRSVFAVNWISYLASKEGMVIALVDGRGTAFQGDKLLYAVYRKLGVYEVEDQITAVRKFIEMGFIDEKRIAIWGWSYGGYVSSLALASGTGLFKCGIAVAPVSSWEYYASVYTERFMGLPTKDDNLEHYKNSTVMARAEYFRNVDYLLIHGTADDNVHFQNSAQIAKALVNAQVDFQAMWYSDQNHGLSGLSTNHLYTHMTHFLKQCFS
Procedure: Compounds were tested in a direct binding assay using 8K surface plasmon resonance biosensor (GE Healthcare) at 20° C. Immobilization of hFAP (M39-A757) on a CMD200M sensor chip (Xantec) was performed using standard amine coupling procedure in immobilization buffer (10 mM HEPES, 150 mM NaCl, 0.05% Tween20, pH 7.4). The surface was washed with 10 mM NaOH, 1M NaCl before being activated with EDC/NHS (GE Healthcare), followed by immobilization of hFAP (in 10 mM Acetate pH 5.0). Finally, the surface was deactivated by ethanolamine. Immobilization levels of hFAP were around 4000-6000 RU. The reference spot was treated as described, omitting the injection of hFAP. Compound concentration series were injected over the immobilized protein in increasing concentrations (2-500 nM) using single cycle kinetics in running buffer (20 mM TRIS, 150 mM NaCl, 0.05% Tween20, 1% DMSO, pH 7.4). Interaction models were fitted globally to the experimental traces, enabling determination of kon, koff and Kd.

[5] = Solubility, kinetic solubility, n = 1 or average of n = 2-3
[6] = HLM CLint, n = 1 or average of n = 2-3

Sequence of Prolyl endopeptidase, Prolyl Oligopeptidase (hPREP) (P48147 whole entry): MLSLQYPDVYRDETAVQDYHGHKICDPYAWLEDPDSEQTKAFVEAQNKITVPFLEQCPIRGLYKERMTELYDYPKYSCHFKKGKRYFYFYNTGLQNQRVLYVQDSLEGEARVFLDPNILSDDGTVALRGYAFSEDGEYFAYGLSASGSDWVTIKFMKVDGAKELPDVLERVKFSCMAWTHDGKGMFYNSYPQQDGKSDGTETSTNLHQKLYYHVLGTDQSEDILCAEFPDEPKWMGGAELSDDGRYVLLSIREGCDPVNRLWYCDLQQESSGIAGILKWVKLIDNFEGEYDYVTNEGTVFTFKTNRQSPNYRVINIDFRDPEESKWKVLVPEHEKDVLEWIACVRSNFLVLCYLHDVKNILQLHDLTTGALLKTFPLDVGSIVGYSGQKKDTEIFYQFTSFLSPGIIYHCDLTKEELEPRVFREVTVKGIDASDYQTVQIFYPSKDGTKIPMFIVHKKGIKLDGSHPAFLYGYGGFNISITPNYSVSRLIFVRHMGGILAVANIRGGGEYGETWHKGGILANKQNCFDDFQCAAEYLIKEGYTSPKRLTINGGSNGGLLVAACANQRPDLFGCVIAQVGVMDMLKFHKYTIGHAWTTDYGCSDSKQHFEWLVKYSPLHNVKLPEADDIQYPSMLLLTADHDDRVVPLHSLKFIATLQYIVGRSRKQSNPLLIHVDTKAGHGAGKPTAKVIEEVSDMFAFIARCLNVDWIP

Structure (SMILES)	IC50 [1] [nM]	rHep CLint [2] [μL/min/1E6]	IC50 [4] [nM]	hFAP Binding assay k(off) (hFAP (M39-A757)) [s⁻¹]	hFAP Binding assay k(on) (hFAP (M39-A757)) [M⁻¹ s⁻¹]	Kd (hFAP (M39-A757)) [nM]	solubility (Kinetic solubility; [5]) [µM]	microsomal CLint [3, 6] [µL/min/mg]	solubility (Kinetic solubility) [µM]	microsomal CLint [3] [µL/min/mg]
CC1CC2(C1)CN(c1ccc3nccc(C(=O)NCC(=O)N4CSC[C@H]4C#N)c3c1)C2 [Example 149, (R)—N-(2-(4-Cyanothiazolidin-3-yl)-2-oxoethyl)-6-(6-methyl-2-azaspiro[3.3]heptan-2-yl)quinoline-4-carboxamide]	470	7	0.097	0.000039	4800000	0.0087	–	–	130 (≈ 56.6 µg/mL)	56
N#C[C@@H]1CSCN1C(=O)CNC(=O)c1ccnc2ccc(N3CC4(CC(C(F)(F)F)C4)C3)cc12 [Example 150, (R)—N-(2-(4-Cyanothiazolidin-3-yl)-2-oxoethyl)-6-(6-(trifluoromethyl)-2-azaspiro[3.3]heptan-2-yl)quinoline-4-carboxamide]	2000	5	0.5	0.000043	280000	0.16	–	–	77 (≈ 37.7 µg/mL)	49
N#C[C@@H]1CSCN1C(=O)CNC(=O)c1ccnc2ccc(N3CC(CC(F)(F)F)C3)cc12 [Example 158, (R)—N-(2-(4-Cyanothiazolidin-3-yl)-2-oxoethyl)-6-(3-(2,2,2-trifluoroethyl)-azetidin-1-yl)quinoline-4-carboxamide]	560	4.7	0.1	0.00029	3100000	0.1	8.9 (≈ 4.13 µg/mL)	17	–	–
N#C[C@@H]1CSCN1C(=O)CNC(=O)c1ccnc2ccc(N3CCC4(CCOCC4)CC3)cc12 [Example 162, (R)—N-(2-(4-cyanothiazolidin-3-yl)-2-oxoethyl)-6-(3-oxa-9-azaspiro[5.5]undecan-9-yl)quinoline-4-carboxamide]	280	3.4	0.053	0.000028	1900000	0.018	–	–	140 (≈ 67.1 µg/mL)	44
N#C[C@@H]1CSCN1C(=O)CNC(=O)c1ccnc2ccc(N3CC4(CC4)C3)cc12 [Example 164, (R)—N-(2-(4-Cyanothiazolidin-3-yl)-2-oxoethyl)-6-(5-azaspiro[2.3]hexan-5-yl)quinoline-4-carboxamide]	240	8.1	0.081	0.000036	1400000	0.027	–	–	64 (≈ 26.1 µg/mL)	22
C[C@@H]1CN(c2ccc3nccc(C(=O)NCC(=O)N4CSC[C@H]4C#N)c3c2)C[C@H](C)[C@]1(C)O [Example 193, N-(2-((R)-4-Cyanothiazolidin-3-yl)-2-oxoethyl)-6-((3R,4S,5S)-4-hydroxy-3,4,5-trimethylpiperidin-1-yl)quinoline-4-carboxamide]	360	11	0.24	0.00012	740000	0.16	940 (≈ 440 µg/mL)	53	–	–
N#C[C@@H]1CSCN1C(=O)CNC(=O)c1ccnc2ccc(-n3ccnc3-c3ccccc3)cc12 [Example 217, (R)—N-(2-(4-Cyanothiazolidin-3-yl)-2-oxoethyl)-6-(2-phenyl-1H-imidazol-1-yl)quinoline-4-carboxamide]	310	37	0.67	0.0013	1800000	0.71	410 (≈ 192 µg/mL)	> 300	–	–
N#C[C@@H]1CSCN1C(=O)CNC(=O)c1ccnc2ccc(-n3ccc(-c4ccccc4)c3)cc12 [Example 218, (R)—N-(2-(4-Cyanothiazolidin-3-yl)-2-oxoethyl)-6-(3-phenyl-1H-pyrrol-1-yl)quinoline-4-carboxamide]	390	18	0.068	0.00032	670000	0.48	< 0.16	37	–	–
N#C[C@@H]1CSCN1C(=O)CNC(=O)c1ccnc2ccc(N3CC4(CCS4)C3)cc12 [Example 222, (R)—N-(2-(4-Cyanothiazolidin-3-yl)-2-oxoethyl)-6-(1-thia-6-azaspiro[3.3]heptan-6-yl)quinoline-4-carboxamide]	490	4.2	0.087	–	–	0.022	–	–	120 (≈ 52.7 µg/mL)	40

Second part, led by results:

IC50 [1] [nM]	rHep CLint [2] [μL/min/1E6]	IC50 [4] [nM]	hFAP Binding assay k(off) (hFAP (M39-A757)) [s⁻¹]	hFAP Binding assay k(on) (hFAP (M39-A757)) [M⁻¹ s⁻¹]	Kd (hFAP (M39-A757)) [nM]	solubility (Kinetic solubility; [5]) [µM]	microsomal CLint [3, 6] [µL/min/mg]	Structure (SMILES)	solubility (Kinetic solubility) [µM]	microsomal CLint [3] [µL/min/mg]
210	33	0.05	0.000074	1100000	0.068	1.8 (≈ 0.798 µg/mL)	45	N#C[C@@H]1CSCN1C(=O)CNC(=O)c1ccnc2ccc(N3CC4C(C3)C4(F)F)cc12 (stereo partly drawn) [Example 160, N-(2-((R)-4-Cyanothiazolidin-3-yl)-2-oxoethyl)-6-(6,6-difluoro-3-azabicyclo[3.1.0]hexan-3-yl)quinoline-4-carboxamide]	–	–
470	8.5	0.052	0.00028	14000000	0.022	84 (≈ 35.7 µg/mL)	6.7	CO[C@@H]1CCN(c2ccc3nccc(C(=O)NCC(=O)N4CSC[C@H]4C#N)c3c2)C1 [Example 161, N-(2-((R)-4-Cyanothiazolidin-3-yl)-2-oxoethyl)-6-((R)-3-methoxy-pyrrolidin-1-yl)quinoline-4-carboxamide]	–	–
470	47	0.048	0.00016	3200000	0.052	110 (≈ 49.1 µg/mL)	140	N#C[C@@H]1CSCN1C(=O)CNC(=O)c1ccnc2cc(Cl)c(N3CCOCC3)cc12 [Example 179, (R)-7-Chloro-N-(2-(4-cyanothiazolidin-3-yl)-2-oxoethyl)-6-morpholino-quinoline-4-carboxamide]	–	–
590	3	0.2	0.00095	560000	1.3	170 (≈ 75.8 µg/mL)	110	N#C[C@@H]1CSCN1C(=O)CNC(=O)c1ccnc2c(Cl)cc(N3CCOCC3)cc12 [Example 180, (R)-8-Chloro-N-(2-(4-cyanothiazolidin-3-yl)-2-oxoethyl)-6-morpholino-quinoline-4-carboxamide]	–	–
550	5.3	0.038	0.000033	1500000	0.022	400 (≈ 187 µg/mL)	94	CCC1(OC)CCN(c2ccc3nccc(C(=O)NCC(=O)N4CSC[C@H]4C#N)c3c2)CC1 [Example 191, (R)—N-(2-(4-Cyanothiazolidin-3-yl)-2-oxoethyl)-6-(4-ethyl-4-methoxy-piperidin-1-yl)quinoline-4-carboxamide]	–	–
460	44	0.046	0.000068	1100000	0.066	480 (≈ 217 µg/mL)	78	N#C[C@@H]1CSCN1C(=O)CNC(=O)c1ccnc2ccc(N3C[C@H]4CCC[C@@H](C3)O4)cc12 [Example 194, 6-((1R,5S)-9-Oxa-3-azabicyclo[3.3.1]nonan-3-yl)-N-(2-((R)-4-cyano-thiazolidin-3-yl)-2-oxoethyl)quinoline-4-carboxamide]	–	–
230	75	0.11	0.0002	2400000	0.083	2.5 (≈ 1.11 µg/mL)	160	N#C[C@@H]1CSCN1C(=O)CNC(=O)c1ccnc2ccc(-n3ccc4c3CCCC4)cc12 [Example 219, (R)—N-(2-(4-Cyanothiazolidin-3-yl)-2-oxoethyl)-6-(4,5,6,7-tetrahydro-1H-indol-1-yl)quinoline-4-carboxamide]	–	–
86	51	0.076	0.000026	2500000	0.01	< 1.6	57	N#C[C@@H]1CSCN1C(=O)CNC(=O)c1ccnc2ccc(N3CCC(F)(c4ccccc4)CC3)cc12 [Example 223, (R)—N-(2-(4-Cyanothiazolidin-3-yl)-2-oxoethyl)-6-(4-fluoro-4-phenyl-piperidin-1-yl)quinoline-4-carboxamide]	–	–
